From ChEMBL document CHEMBL1148828, “Deoxycholic acid-derived tetraoxane antimalarials and antiproliferatives(1)” (J Med Chem, 2007)
Active and inactive are the calls of the source. No cut-off for these calls is given here.

What was measured:
HOP-62 = assay: Antiproliferative activity against human HOP62 cells after 48 hrs; format: functional; conditions: HOP-62, 48 h
[1] = (§1) Metabolic stability in human liver microsomes; format: ADME, Microsome; conditions: liver microsomes
LOX IMVI = assay: Antiproliferative activity against human LOX IMVI cells after 48 hrs; format: functional
NCI = assay: Growth inhibition of human NCI DTP 60 cells; format: functional
Plasmodium falciparum [2] = assay: Antimalarial activity against Plasmodium falciparum W2; format: functional, organism-based
[3] = (§2) Toxicity in Plasmodium berghei KBG 173 infected CD1 mice (Mus musculus); format: organism-based; conditions: CD1, mouse, in vivo
Mus musculus [4] = species on record: Mus musculus; assay: as §2; format: organism-based; conditions: mouse, in vivo
Mus musculus [5] = assay: Survival of Plasmodium berghei KBG 173 infected CD1 mice (Mus musculus) at 40 mg/kg/day; format: ADME, organism-based; conditions: in vivo
Mus musculus [6] = assay: Survival of Plasmodium berghei KBG 173 infected CD1 mice (Mus musculus) at 80 mg/kg/day; format: ADME, organism-based; conditions: in vivo
Plasmodium berghei [7] = assay: Antimalarial activity as survivors after 31 days in Plasmodium berghei KBG173 infected CD1 mice (Mus musculus) at 320 mg/kg/day; format: functional, organism-based; conditions: KBG 173
Plasmodium falciparum [8] = assay: Antimalarial activity against Plasmodium falciparum TM91C235; format: functional, organism-based
SF-268 = assay: Antiproliferative activity against human SF268 cells after 48 hrs; format: functional; conditions: SF-268, 48 h
Mus musculus [9] = assay: Survival of Plasmodium berghei KBG 173 infected CD1 mice (Mus musculus) at 320 mg/kg/day; format: ADME, organism-based; conditions: in vivo
Mus musculus [10] = assay: Survival of Plasmodium berghei KBG 173 infected CD1 mice (Mus musculus) at 10 mg/kg/day; format: ADME, organism-based; conditions: in vivo
Plasmodium falciparum [11] = assay: Antimalarial activity against Plasmodium falciparum D6; format: functional, organism-based
Plasmodium berghei [12] = assay: Antimalarial activity as survivors after 31 days in Plasmodium berghei KBG173 infected CD1 mice (Mus musculus) at 10 mg/kg/day; format: functional, organism-based; conditions: KBG 173
HCT-116 = assay: Antiproliferative activity against human HCT116 cells after 48 hrs; format: functional; conditions: HCT-116, 48 h
[13] = Metabolic stability in mouse liver microsomes; format: ADME, Microsome; conditions: liver microsomes
Plasmodium berghei [14] = assay: Antimalarial activity as survivors after 31 days in Plasmodium berghei KBG173 infected CD1 mice (Mus musculus) at 80 mg/kg/day; format: functional, organism-based; conditions: KBG 173
Liver microsomes = assay: as §1; format: ADME, Microsome; conditions: microsomes
MDA-MB-435 = assay: Antiproliferative activity against human MDA-MB-435 cells after 48 hrs; format: functional
CAKI-1 = assay: Antiproliferative activity against human CAKI1 cells after 48 hrs; format: functional; conditions: CAKI-1, 48 h
CCRF-CEM = assay: Antiproliferative activity against human CCRF-CEM cells after 48 hrs; format: functional
Mus musculus [15] = assay: Survival of Plasmodium berghei KBG 173 infected CD1 mice (Mus musculus) at 20 mg/kg/day; format: ADME, organism-based; conditions: in vivo
OVCAR-3 = assay: Antiproliferative activity against human OVCAR-3 cells after 48 hrs; format: functional; conditions: OVCAR-3, 48 h
NCI-H322M = assay: Antiproliferative activity against human NCI-H322M cells after 48 hrs; format: functional
[16] = Plasmodium falciparum, TM91C235
[17] = read-out: LC50 (the source's name)

CC(=O)O[C@H]1C[C@H]2[C@@H]([C@H](OC(C)=O)C[C@@H]3CC4(CC[C@@]32C)OOC2(CCCCC2)OO4)[C@@H]2CC[C@H]([C@H](C)CCC(=O)NCCN(C)C)[C@@]12C
GI50 (HOP-62): < 0.01 µM | LC50 (HOP-62): 0.083 µM | TGI (HOP-62): 0.0166 µM | half-life [1]: 40 min | GI50 (LOX IMVI; Homo sapiens, LOX IMVI, 48 h): < 0.01 µM | LC50 (concentration killing 50% of cells) (LOX IMVI; Homo sapiens, LOX IMVI, 48 h): 0.0688 µM | TGI (LOX IMVI; Homo sapiens, LOX IMVI, 48 h): 0.0224 µM | GI50 (NCI; Homo sapiens, NCI): < 0.01 µM | IC50 (Plasmodium falciparum [2]; Plasmodium falciparum, W2): 0.0145 µM | IC90 (Plasmodium falciparum [2]; Plasmodium falciparum, W2): 0.0451 µM | MTD [3]: > 960 mg/kg | MCD (Mus musculus [4]): <= 40 mg/kg/day | Survival (Mus musculus [5]): 21 days | Survival (Mus musculus [6]): 25 days | Activity (Plasmodium berghei [7]): Active | IC50 (Plasmodium falciparum [8]; [16]): 0.0196 µM | IC90 (Plasmodium falciparum [8]; [16]): 0.0379 µM | GI50 (SF-268): 0.785 µM | TGI (SF-268): 2.25 µM | CC50 (SF-268; [17]): 5.35 µM | Survival (Mus musculus [9]): 31 days | Survival (Mus musculus [10]): 8 days | IC50 (Plasmodium falciparum [11]; Plasmodium falciparum, D6): 0.0282 µM | IC90 (Plasmodium falciparum [11]; Plasmodium falciparum, D6): 0.0451 µM | Activity (Plasmodium berghei [12]): inactive | GI50 (HCT-116): 0.0831 µM | TGI (HCT-116): 1.69 µM | CC50 (HCT-116; [17]): 4.62 µM | half-life [13]: 40 min

CC(=O)O[C@H]1C[C@H]2[C@@H]([C@H](OC(C)=O)C[C@@H]3CC4(CC[C@@]32C)OOC2(CCC(C)CC2)OO4)[C@@H]2CC[C@H]([C@H](C)CCC(=O)NCCN(C)C)[C@@]12C (stereo in doubt; 23)
Activity (Plasmodium berghei [14]): inactive

CC(=O)O[C@H]1C[C@H]2[C@@H]([C@H](OC(C)=O)C[C@@H]3CC4(CC[C@@]32C)OOC2(CCC(C)CC2)OO4)[C@@H]2CC[C@H]([C@H](C)CCC(=O)NCCN(C)C)[C@@]12C (stereo in doubt; 22)
t1/2 (Liver microsomes): 42 min | GI50 (LOX IMVI): 0.183 µM | GI50 (NCI): 0.18 µM | IC50 (Plasmodium falciparum [2]): 0.0167 µM | IC90 (Plasmodium falciparum [2]): 0.0248 µM | GI50 (MDA-MB-435): 1.53 µM | TGI (MDA-MB-435): 2.91 µM | CC50 (MDA-MB-435; Homo sapiens, MDA-MB-435, 48 h, read-out: LC50 (the source's name)): 5.52 µM | MCD (Mus musculus [4]): 40 mg/kg/day | Survival (Mus musculus [5]): 19 days | GI50 (CAKI-1): 1.37 µM | TGI (CAKI-1): 2.69 µM | CC50 (CAKI-1; [17]): 5.29 µM | IC50 (Plasmodium falciparum [8]): 0.0122 µM | IC90 (Plasmodium falciparum [8]): 0.0185 µM | IC50 (Plasmodium falciparum [11]): 0.0186 µM | IC90 (Plasmodium falciparum [11]): 0.0278 µM | GI50 (CCRF-CEM): 0.258 µM | TGI (CCRF-CEM): 0.725 µM | Survival (Mus musculus [15]): 9 days | half-life [13]: 77 min | GI50 (OVCAR-3): 1.19 µM | TGI (OVCAR-3): 2.47 µM | CC50 (OVCAR-3; [17]): 5.11 µM | GI50 (NCI-H322M): 1.46 µM | TGI (NCI-H322M): 2.79 µM | CC50 (NCI-H322M; [17]): 5.34 µM
